Results reported in patent publication US8440654B2, “Thieno- and furo-pyrimidine modulators of the histamine H4 receptor” (Janssen Pharmaceutica NV, priority 2007, dated 2013).
Counter-ions that a name gives are not always drawn.

Biological target: T1, human histamine H4 receptor (Homo sapiens, UniProt Q9H3N8)
T1 construct: expressed in transfected cells; host or cells: SK-N-MC cells or COS7 cells, transiently transfected with pH4R; membrane preparation
Assay: Binding Assay on Recombinant Human Histamine H4 Receptor
Conditions: competition binding with 3H-histamine, membranes of SK-N-MC or COS7 cells transfected with human H4R; average of results obtained
Experimental: Biological Methods: Binding Assay on Recombinant Human Histamine H4 Receptor.
SK-N-MC cells or COS7 cells were transiently transfected with pH4R and grown in 150 cm^2 tissue culture dishes. Cells were washed with saline solution, scraped with a cell scraper and collected by centrifugation (1000 rpm, 5 min). Cell membranes were prepared by homogenization of the cell pellet in 20 mM Tris-HCl with a polytron tissue homogenizer for 10 sec at high speed. Homogenate was centrifuged at 1000 rpm for 5 min at 4° C. The supernatant was then collected and centrifuged at 20,000×g for 25 min at 4° C. The final pellet was resuspended in 50 mM Tris-HCl. Cell membranes were incubated with ^3H-histamine (5-70 nM) in the presence or absence of excess histamine (10,000 nM). Incubation occurred at room temperature for 45 min. Membranes were harvested by rapid filtration over Whatman GF/C filters and washed 4 times with ice-cold 50 mM Tris HCl. Filters were then dried, mixed with scintillant and counted for radioactivity. SK-N-MC or COS7 cells expressing human histamine H4 receptor were used to measure the affinity of binding of other compounds and their ability to displace ^3H-ligand binding by incubating the above-described reaction in the presence of various concentrations of inhibitor or compound to be tested. For competition binding studies using ^3H-histamine, K values were calculated, based on an experimentally determined KD value of 5 nM and a ligand concentration of 5 nM, according to Y.-C.

Ki [nM]	Compound
54	CN(CCN)c1nc(N)nc2c3c(sc12)CCC(C)(C)C3 [Example 133, N^4-(2-Aminoethyl)-N^4,8,8-trimethyl-6,7,8,9-tetrahydro[1]benzothieno[3,2-d]pyrimidine-2,4-diamine trifluoroacetate]
8	CN1CCN(c2nc(N)nc3c4c(oc23)CCCC4)CC1 [Example 5, 4-(4-Methyl-piperazin-1-yl)-6,7,8,9-tetrahydro-benzo[4,5]furo[3,2-d]pyrimidin-2-ylamine]
7.7	CC1(C)CCc2sc3c(N4CC[C@@H](N)C4)nc(N)nc3c2C1 [Example 136, 4-[(3R)-3-Aminopyrrolidin-1-yl]-8,8-dimethyl-6,7,8,9-tetrahydro[1]benzothieno[3,2-d]pyrimidin-2-amine hydrochloride]
83	Nc1nc(N2CC(N)C2)c2oc3c(c2n1)CCCC3 [Example 23, 4-(3-Aminoazetidin-1-yl)-6,7,8,9-tetrahydro[1]benzo-furo[3,s-d]pyrimidin-2-amine trifluoroacetic acid salt]
62	CN(C)[C@@H]1CCN(c2nc(N)nc3c4c(sc23)CCCC4)C1 [Example 39, 4-[(3R)-3-(Dimethyl-amino)pyrrolidin-1-yl]-6,7,8,9-tetrahydro[1]benzo-thieno[3,2-d]pyrimidin-2-amine trifluoroacetic acid salt]
71	CN[C@H]1CCN(c2nc(N)nc3cc(C(C)(C)C)sc23)C1 [Example 16, trifluoroacetic acid salt]
10	Nc1nc(N2CCC(N)C2)c2sc3c(c2n1)CCCC3 (stereo in doubt) [Example 56, 4-[(3R)-3-Aminopyrrolidin-1-yl]-6,7,8,9-tetrahy-dro[1]benzothieno[3,2-d]pyrimidin-2-amine trifluoracetic acid salt]
> 10000	NCCNc1ncnc2c3c(oc12)CCCC3 [Example 27, N-(6,7,8,9-Tetra-hydro[1]benzofuro[3,2-d]pyrimidin-4-yl]ethane-1,2-diamine]
286	CN1CCN(c2nc(N)nc3cc(C(C)(C)C)sc23)CC1 [Example 15, 6-tert-Butyl-4-(4-methyl-piperazin-1-yl)thieno[3,2-d]pyrimidin-2-amine trifluoroacetic acid salt]
15	CN1CCN(c2nc(N)nc3c4c(oc23)CCC(F)(F)C4)CC1 [Example 123, 8,8-Difluoro-4-(4-methylpiperazin-1-yl)-6,7,8,9-tetrahydro[1]benzofuro[3,2-d]pyrimidin-2-amine trifluoroacetate]
145	(3R)-N-Methyl-1-(6,7,8,9- tetrahydro[1]benzo- thieno[3,2-d]pyrimidin-4- yl)pyrrolidin-3-amine [Example 30]
467	Nc1nc(N2CC(N)C2)c2sc3c(c2n1)CCCC3 [Example 42, 4-(3-Aminoazetidin-1-yl)-6,7,8,9-tetrahydro[1]benzo-thieno[3,2-d]pyrimidin-2-amine trifluoroacetic acid salt]
150	CN(CCN)c1nc(N)nc2c3c(oc12)CCC(F)(F)C3 [Example 125, N^4-(2-Aminoethyl)-8,8-difluoro-N^4-methyl-6,7,8,9-tetrahydro[1]benzofuro[3,2-d]pyrimidine-2,4-diamine (free amine)]
66	CNC1CCN(c2ncnc3c4c(oc23)CCCC4)C1 (stereo in doubt) [Example 28, (3R)-N-Methyl-1-(6,7,8,9-tetrahydro[1]benzofuro[3,2-d]pyrimidin-4-yl)pyrrolidin-3-amine]
170	Nc1nc(N2CC(N)C2)c2sc3c(c2n1)CC(F)(F)CC3 [Example 120, 4-(3-Aminoazetidin-1-yl)-8,8-difluoro-6,7,8,9-tetrahydro[1]benzothieno[3,2-d]pyrimidin-2-amine (free amine)]
5	Nc1nc(N2CCNCC2)c2oc3c(c2n1)CCCC3 [Example 6, 4-piperazin-1-yl-6,7,8,9-tetrahydro-benzo[4,5]furo[3,2-d]pyrimidin-2-ylamine]
503	CCNC1CCN(c2nc(N)nc3c4c(sc23)CCCC4)C1 (stereo in doubt) [Example 40, 4-[(3R)-3-(Ethyl-amino)pyrrolidin-1-yl]-6,7,8,9-tetrahydro[1]benzo-thieno[3,2-d]pyrimidin-2-amine trifluoroacetic acid salt]
21	CN(CCN)c1nc(N)nc2c3c(sc12)CCC(F)(F)C3 [Example 115, N^4-(2-Aminoethyl)-8,8-difluoro-N^4-methyl-6,7,8,9-tetrahydro[1]benzothieno[3,2-d]pyrimidine-2,4-diamine trifluoroacetate]
35	CN[C@H]1CCN(c2nc(N)nc3c4c(sc23)CCC(C)(C)C4)C1 [Example 135, 8,8-Dimethyl-4-[(3S)-3-(methylamino)pyrrolidin-1-yl]-6,7,8,9-tetrahydro[1]benzothieno[3,2-d]pyrimidin-2-amine hydrochloride]
7	CN[C@H]1CCN(c2nc(N)nc3c4c(oc23)CCC(F)(F)C4)C1 [Example 122, 8,8-Difluoro-4-[(3S)-3-(methylamino)pyrrolidin-1-yl]-6,7,8,9-tetrahydro[1]benzofuro[3,2-d]pyrimidin-2-amine trifluoroacetate]
21	Nc1nc(N2CC[C@H](N)C2)c2sc3c(c2n1)CC(F)(F)CC3 [Example 119, 4-[(3S)-3-Aminopyrrolidin-1-yl]-8,8-difluoro-6,7,8,9-tetrahydro[1]benzothieno[3,2-d]pyrimidin-2-amine hydrochloride]

Compound	Ki [nM]
NCCN1CCN(c2nc(N)nc3c4c(sc23)CCCC4)CC1 [Example 49, 4-[4-(2-Aminoethyl)piper-azin-1-yl]-6,7,8,9-tetrahy-dro[1]benzothieno[3,2-d]pyrimidin-2-amine tri-fluoroacetic acid salt]	2260
CN[C@@H]1CN(c2nc(N)nc3c4c(sc23)CCCC4)C[C@@H]1O [Example 38, (3S,4S)-1-(2-Amino-6,7,8,9-tetrahydro[1]benzothieno[3,2-d]pyrimidin-4-yl)-4-(methyl-amino)pyrrolidin-3-of tri-fluoroacetic acid salt]	300
Nc1nc(N2C[C@H]3CCN[C@H]3C2)c2oc3c(c2n1)CCCC3 [Example 7, 4-[(3aR,6aR)-Hexahydropyrrolo[3,4-b]pyrrol-5(1H)-yl]-6,7,8,9-tetrahydro[1]benzofuro[3,2-d]pyrimidin-2-amine]	3
Nc1nc(N2CCN3CCCCC3C2)c2sc3c(c2n1)CCCC3 (stereo not shown) [Example 53, 4-(Octahydro-2H-pyrido[1,2-a]pyrazin-2-yl)-6,7,8,9-tetrahydro[1]benzothieno-3,2-d]pyrimidin-2-amine trifluoroacetic acid salt]	387
Nc1nc(N2CCN3CCCC3C2)c2sc3c(c2n1)CCCC3 (stereo not shown) [Example 52, 4-(Hexahydropyrrolo[1,2-a]pyrazin-2(1H)-yl-6,7,8,9-tetrahydro[1]benzothieno[3,2-d]pyrimidin-2-aminetrifluoroacetic acid salt]	67
Nc1nc(N2C[C@H]3CNC[C@H]3C2)c2sc3c(c2n1)CCCC3 [Example 33]	390
CNC1CCN(c2nc(N)nc3c(Br)csc23)C1 (stereo in doubt) [Example 14, 7-Bromo-4-(3R)-3-(methyl-amino)pyrrolidin-1-yl-d]pyrimidin-2-amine tri-fluoroacetic acid salt]	1050
